Measured values reported in patent publication US20200085839A1, “COMBINATION OF IMMUNOTHERAPEUTICS AND BISFLUOROALKYL-1,4-BENZODIAZEPINONE COMPOUNDS FOR TREATING LYMPHOMAS” (Ayala Pharmaceuticals Inc., priority 2018, published 2020).

Tests used:
[1] = system: U266 human myeloma cell line cells in NSG mice; experiment: Anti-tumor activity of BCMA-targeted CAR-T cells and Compound (1) in vivo; settings: combination with 1×10^6 BCMA targeted CAR-T cells IV on day 4; imaging day 11
Method: BCMA targeted CAR-T cells mediate an anti-myeloma immune response. 1×10^7 U266 human myeloma cell line cells are injected IV into NSG mice on day 0. On day 4, a) 1×10^6 BCMA targeted second generation CAR-T cells, Compound (1) or both are injected IV.

[2] = system: BCMA negative CD19 positive Raji Burkett lymphoma cell line; experiment: Lysis of BCMA negative cells by BCMA-CAR-T cells and/or Compound (1); type: cell-based, human; settings: combination with BCMA-CAR-T cells or each alone
[3] = system: MHHH-PREB-1 cells (B-cell Lymphoma); experiment: Soluble (shed) BCMA by ELISA; type: cell-based, human
Method: (§1) […] cell lines, comprising 9 subtypes of lymphomas (see Table 1), were seeded at 1×10^5 cells/well in a total volume of 250 μl into a 96-well plate. The cells were cultured in RPMI medium supplemented with 10% FCS. Compound (22) was added to the cell cultures at a concentration of 10 μM, 1 μM, 100 nM, 10 nM, 1 nM, 100 pM, 10 pM, 1 pM, and 100 fM, and cell lines (8 from Hadassah Medical Center, 31 from Eurofins) were incubated at 37° C. for 24 hours with Compound (22). Following incubation, the cells were collected and BCMA levels were evaluated on the cell surface for cell-bound BCMA. Cells were stained with an anti-BCMA antibody (PE anti-human 19F2 BCMA, Biolegend), and cell surface BCMA levels were determined by FACS analysis (Mean Fluorescence Intensity. Soluble BCMA levels were analyzed by ELISA (Human BCMA/TNFRSF17 DuoSet kit: R&D Systems).

SUDHL-10 cells (DLBCL) = experiment: Soluble (shed) BCMA by ELISA; type: cell-based, human
Method: as §1

[4] = system: GA-10 cells (Burkitt's Lymphoma); experiment: Soluble (shed) BCMA by ELISA; type: cell-based, human
Method: as §1

[5] = system: Daudi cells (Burkitt's Lymphoma); experiment: Soluble (shed) BCMA by ELISA; type: cell-based, human
Method: as §1

[6] = system: REC-1 cells (Mantle Cell Lymphoma); experiment: Soluble (shed) BCMA by ELISA; type: cell-based, human
Method: as §1

[7] = system: JVM-2 cells (Mantle Cell Lymphoma); experiment: Soluble (shed) BCMA by ELISA; type: cell-based, human
Method: as §1

[8] = system: SR cells (Anaplastic Large Cell Lymphoma); experiment: Soluble (shed) BCMA by ELISA; type: cell-based, human
Method: as §1

[9] = system: Jeko-1 cells (Mantle Cell Lymphoma); experiment: Soluble (shed) BCMA by ELISA; type: cell-based, human
Method: as §1

[10] = system: MC-116 cells (B-cell Lymphoma); experiment: Soluble (shed) BCMA by ELISA; type: cell-based, human
Method: as §1

ST486 cells (DLBCL) = experiment: Soluble (shed) BCMA by ELISA; type: cell-based, human
Method: as §1

[11] = system: EB-3 cells (Burkitt's Lymphoma); experiment: Soluble (shed) BCMA by ELISA; type: cell-based, human
Method: as §1

[12] = system: Raji cells (Burkitt's Lymphoma); experiment: Soluble (shed) BCMA by ELISA; type: cell-based, human
Method: as §1

[13] = system: Ramos cells (Burkitt's Lymphoma); experiment: Soluble (shed) BCMA by ELISA; type: cell-based, human
Method: as §1

[14] = system: NU-DUL-1 cells (B-cell Lymphoma); experiment: Soluble (shed) BCMA by ELISA; type: cell-based, human
Method: as §1

[15] = system: U937 cells (Histiocytic Lymphoma); experiment: Soluble (shed) BCMA by ELISA; type: cell-based, human
Method: as §1

[16] = system: EB-2 cells (Burkitt's Lymphoma); experiment: Soluble (shed) BCMA by ELISA; type: cell-based, human
Method: as §1

SUDHL-8 cells (DLBCL) = experiment: Soluble (shed) BCMA by ELISA; type: cell-based, human
Method: as §1

[17] = system: SUDHL-4 (Eurofins) cells (DLBCL); experiment: Soluble (shed) BCMA by ELISA; type: cell-based, human
Method: as §1

[18] = system: BCP-1 cells (B-cell Lymphoma); experiment: Soluble (shed) BCMA by ELISA; type: cell-based, human
Method: as §1

DB cells (DLBCL) = experiment: Soluble (shed) BCMA by ELISA; type: cell-based, human
Method: as §1

[19] = Homo sapiens, read-out: Shed BCMA (pg/ml) EC50

SMILES: CN1C(=O)[C@@H](NC(=O)[C@H](CCC(F)(F)F)[C@H](CCC(F)(F)F)C(N)=O)N=C(c2ccccc2)c2ccccc21 [Compound 1, (2R,3S)—N-((3S)-1-methyl-2-oxo-5-phenyl-2,3-dihydro-1H-1,4-benzodiazepin-3-yl)-2,3-bis(3,3,3-trifluoropropyl)succinamide]
- anti-tumor response, imaging of tumors [1]: improved anti-tumor response compared to either BCMA targeted CAR-T or Compound (1) treatment alone
- lysis of BCMA negative cells [2]: neither the BCMA-CAR-T cells and Compound (1) combination nor each alone lyses

SMILES: Cc1cccc2c1NC(=O)[C@@H](NC(=O)[C@H](CCC(F)(F)F)[C@H](CCC(F)(F)F)C(N)=O)N=C2c1cccc(F)c1 [Compound (22), (2R,3S)—N-((3S)-5-(3-fluorophenyl)-9-methyl-2-oxo-2,3-dihydro-1H-1,4-benzodiazepin-3-yl)-2,3-bis(3,3,3-trifluoropropyl)succinamide]
- Shed BCMA (pg/ml) % Reduction [3]: 97%
- soluble BCMA 1 nM Compound (22) ([3]; 1 nM, 24 h): 227.3
- soluble BCMA 10 nM Compound (22) ([3]; 10 nM, 24 h): 75.4
- soluble BCMA 100 nM Compound (22) ([3]; 100 nM, 24 h): 60.1
- EC50 ([3]; Homo sapiens, B-cell, read-out: Shed BCMA (pg/ml) EC50): 0.6 nM
- Shed BCMA (pg/ml) % Reduction (SUDHL-10 cells (DLBCL)): 97%
- EC50 (SUDHL-10 cells (DLBCL); Homo sapiens, SU-DHL10, read-out: Shed BCMA (pg/ml) EC50): 0.9 nM
- Shed BCMA (pg/ml) % Reduction [4]: 83%
- soluble BCMA 1 nM Compound (22) ([4]; 1 nM, 24 h): >2000
- soluble BCMA 10 nM Compound (22) ([4]; 10 nM, 24 h): 800.8
- soluble BCMA 100 nM Compound (22) ([4]; 100 nM, 24 h): 398.1
- EC50 [4, 19]: 7.4 nM
- Shed BCMA (pg/ml) % Reduction [5]: 100%
- soluble BCMA 1 nM Compound (22) ([5]; 1 nM, 24 h): 162.6
- soluble BCMA 10 nM Compound (22) ([5]; 10 nM, 24 h): 36.8
- soluble BCMA ([5]; FIG. 7B): decreased soluble BCMA
- EC50 [5, 19]: 0.5 nM
- Shed BCMA (pg/ml) % Reduction [6]: BLQ
- EC50 ([6]; Homo sapiens, Rec1, read-out: Shed BCMA (pg/ml) EC50): > 10000 nM
- Shed BCMA (pg/ml) % Reduction [7]: 57%
- EC50 [7, 19]: 75.3 nM
- Shed BCMA (pg/ml) % Reduction [8]: BLQ
- EC50 [8, 19]: > 10000 nM
- EC50 ([9]; Homo sapiens, JeKo-1, read-out: Shed BCMA (pg/ml) EC50): 1.1 nM
- soluble BCMA 10 nM Compound (22) ([9]; JEKO-1, 10 nM, 24 h): 338
- Shed BCMA (pg/ml) % Reduction ([9]; Jeko-1): 76%
- soluble BCMA 1 nM Compound (22) ([9]; Jeko-1, 1 nM, 24 h): 1245.6
- soluble BCMA 100 nM Compound (22) ([9]; Jeko-1, 100 nM, 24 h): 305.6
- EC50 ([10]; Homo sapiens, MC116, MC-116, read-out: Shed BCMA (pg/ml) EC50): 6.5 nM
- soluble BCMA 1 nM Compound (22) ([10]; MC116, 1 nM, 24 h): 1810.6
- soluble BCMA 10 nM Compound (22) ([10]; MC116, 10 nM, 24 h): 414.8
- soluble BCMA 100 nM Compound (22) ([10]; MC116, 100 nM, 24 h): 303.7
- Shed BCMA (pg/ml) % Reduction ([10]; MC-116): 76%
- Shed BCMA (pg/ml) % Reduction (ST486 cells (DLBCL)): 90%
- EC50 (ST486 cells (DLBCL); [19]): 0.9 nM
- Shed BCMA (pg/ml) % Reduction [11]: BLQ
- EC50 [11, 19]: > 10000 nM
- Shed BCMA (pg/ml) % Reduction [12]: 99%
- soluble BCMA 1 nM Compound (22) ([12]; 1 nM, 24 h): 81.4
- soluble BCMA 10 nM Compound (22) ([12]; 10 nM, 24 h): 29.7
- soluble BCMA 100 nM Compound (22) ([12]; 100 nM, 24 h): 26.3
- EC50 [12, 19]: 0.3 nM
- Shed BCMA (pg/ml) % Reduction [13]: 76%
- soluble BCMA 1 nM Compound (22) ([13]; 1 nM, 24 h): >2000
- soluble BCMA 10 nM Compound (22) ([13]; 10 nM, 24 h): 613.3
- soluble BCMA 100 nM Compound (22) ([13]; 100 nM, 24 h): 504.3
- EC50 [13, 19]: 8.6 nM
- Shed BCMA (pg/ml) % Reduction [14]: 91%
- EC50 [14, 19]: 1 nM
- Shed BCMA (pg/ml) % Reduction [15]: BLQ
- EC50 ([15]; Homo sapiens, U-937, read-out: Shed BCMA (pg/ml) EC50): > 10000 nM
- soluble BCMA 1 nM Compound (22) ([16]; EB2, 1 nM, 24 h): >2000
- soluble BCMA 10 nM Compound (22) ([16]; EB2, 10 nM, 24 h): 597.7
- soluble BCMA 100 nM Compound (22) ([16]; EB2, 100 nM, 24 h): 479.4
- Shed BCMA (pg/ml) % Reduction ([16]; EB-2): 70%
- EC50 ([16]; Homo sapiens, EB2, EB-2, read-out: Shed BCMA (pg/ml) EC50): 7.1 nM
- Shed BCMA (pg/ml) % Reduction (SUDHL-8 cells (DLBCL)): 100%
- EC50 (SUDHL-8 cells (DLBCL); Homo sapiens, SU-DHL-8, read-out: Shed BCMA (pg/ml) EC50): 0.5 nM
- Shed BCMA (pg/ml) % Reduction [17]: 87%
- EC50 ([17]; Homo sapiens, SU-DHL-4, read-out: Shed BCMA (pg/ml) EC50): 6.6 nM
- Shed BCMA (pg/ml) % Reduction [18]: 94%
- soluble BCMA 1 nM Compound (22) ([18]; 1 nM, 24 h): 1665.7
- soluble BCMA 10 nM Compound (22) ([18]; 10 nM, 24 h): 1610 pg/mL
- soluble BCMA 100 nM Compound (22) ([18]; 100 nM, 24 h): 460.6
- soluble BCMA ([18]; FIG. 6B): decreased soluble BCMA
- EC50 [18, 19]: 48 nM
- Shed BCMA (pg/ml) % Reduction (DB cells (DLBCL)): 100%
- soluble BCMA 1 nM Compound (22) (DB cells (DLBCL); 1 nM, 24 h): 270.5
- soluble BCMA 10 nM Compound (22) (DB cells (DLBCL); 10 nM, 24 h): 40.5
- soluble BCMA (DB cells (DLBCL); FIG. 9B): decreased soluble BCMA
- EC50 (DB cells (DLBCL); [19]): 1 nM
